Patent publication US11337969B2, “Methods for treating cancer” (X4 Pharmaceuticals, Inc., priority 2016, dated 2022)
Blank lines part the entries; values can stand above or below the molecule they belong to.

Tests used:
[1] = tested on: melanoma, renal cell carcinoma, and ovarian cancer; settings: including decreased metastasis and increased overall survival; cited from earlier work
[2] = subcutaneous injection; cited from earlier work
in vivo = assay: in vivo
Description: In certain embodiments, the dosage composition may be provided twice a day in divided dosage, approximately 12 hours apart. In other embodiments, the dosage composition may be provided once daily. […] Dosage for oral administration may be from about 100 mg to about 1200 mg once or twice per day.

[3] = Solubility of X4P-001 as a function of pH; assay type: physicochemical
[4] = oral administration, healthy volunteers and HIV patients; cited from earlier work
[5] = tested on: advanced clear-cell renal-cell carcinoma; settings: cited from earlier work; for objective response rate: patients after one or two antiangiogenic regimens, nivolumab 3 mg/kg iv every two weeks or everolimus 10 mg orally daily, P<0.001
[6] = nivolumab compared to everolimus

Molecule: c1cc(CN2CCCNCCNCCCNCC2)ccc1CN1CCCNCCNCCCNCC1 [Plerixafor, reference compound]
- anti-tumor activity [1]: significant anti-tumor activity
- half life [2]: very short

- terminal half-life (in vivo): approximately 14.5 hrs
- half-life (in vivo; terminal half-life): 720 to 1440 min
- solubility ([3]; aqueous buffer, pH range 3.0 to 8.0 (freely soluble)): > 100 mg/mL
- Solubility in water ([3]; water): only slightly soluble
Molecule: NCCCCN(Cc1nc2ccccc2[nH]1)[C@H]1CCCc2cccnc21 [X4P-001]
- anti-tumor activity [1]: significant anti-tumor activity
- pharmacodynamic activity: circulating white blood cells (WBCs) [4]: dose- and concentration-related changes
- volume of distribution (VL) [4]: high

Molecule: CO[C@H]1C[C@@H]2CC[C@@H](C)[C@@](O)(O2)C(=O)C(=O)N2CCCC[C@H]2C(=O)O[C@H]([C@H](C)C[C@@H]2CC[C@@H](OCCO)[C@H](OC)C2)CC(=O)[C@H](C)/C=C(\C)[C@@H](O)[C@@H](OC)C(=O)[C@H](C)C[C@H](C)/C=C/C=C/C=C/1C [everolimus]
- objective response rate [5]: 5%

Molecule: nivolumab: human IgG4 anti-PD-1 monoclonal antibody
- incidence of Grade 3 or 4 treatment-related adverse events [5, 6]: lower incidence
- median overall survival [5, 6]: longer
- objective response rate [5]: 25%
